From patent US20100197753A1, “Benzamides Useful as S1P Receptor Modulators” (Novartis AG, priority 2007, published 2010)

Key:
Assay type in all cases: biochemical
human S1P5 receptor = target: T1, human S1P5 receptor (Homo sapiens, UniProt Q9H228); experiment: 35S-GTPγS binding assay (Test 1), S1P5; details: membrane protein of transfected CHO cells, SPA; for EC50: read-out: EC50, receptor subtype S1P5
T1 construct: expressed in transfected cells; host or cells: CHO-K1 (ATCC CCL 61); RH7777 may also be used
T1 sequence (Q9H228 whole entry): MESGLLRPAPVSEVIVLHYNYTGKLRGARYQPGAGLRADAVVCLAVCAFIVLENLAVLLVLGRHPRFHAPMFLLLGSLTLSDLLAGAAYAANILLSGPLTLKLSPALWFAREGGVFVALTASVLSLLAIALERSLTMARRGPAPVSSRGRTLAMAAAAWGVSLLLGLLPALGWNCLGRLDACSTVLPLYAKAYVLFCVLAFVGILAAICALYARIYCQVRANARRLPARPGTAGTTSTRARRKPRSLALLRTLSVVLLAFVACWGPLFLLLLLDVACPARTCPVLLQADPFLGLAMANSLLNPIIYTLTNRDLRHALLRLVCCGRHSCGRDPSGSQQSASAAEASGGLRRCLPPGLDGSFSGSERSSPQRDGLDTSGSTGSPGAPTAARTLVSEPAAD
Method: (§1) Test 1: ^35S-GTPγS Binding Assay
(§2) The S1P receptor modulating properties of an agent of the invention are tested on the human S1P1, S1P2, S1P3, S1P4 and S1P5, respectively, receptor subtypes. The functional receptor activation is assessed by quantifying the compound-induced ^35S-GTPγS binding to membrane protein prepared from transfected heterologous cells stably expressing the appropriate S1P receptor subtype. CHO cells (CHO-K1, Chinese hamster, ATCC no. CCL 61) are used [RH7777 cells (rat Morris hepatoma, ATCC no. CRL 1601) may also be used]. The membrane protein is prepared from wild-type cells and from different cell clones expressing the appropriate S1P receptor subtype. The assay technology used is SPA (scintillation proximity based assay). A DMSO solution of the test compound is serially diluted and added to SPA-bead (Amersham-Pharmacia) immobilised S1P receptor subtype expressing membrane protein (1 to 20 μg/well) in the presence of 50 mM HEPES, 100 mM NaCl, 10 mM MgCl2, 10 μM GDP, 0.1% fat free BSA and 0.2 nM ^35S-GTPγS (1200 Ci/mmol) (pH 7.4). After incubation in 96 well microtiter plates at room temperature for 120 minutes, the unbound ^35S-GTPγS is separated by centrifugation. The luminescence of SPA beads triggered by membrane bound ^35S-GTPγS is quantified with a TOPcount plate reader (Packard). To evaluate the S1P receptor modulation, the stimulation (in %) compared to the baseline is calculated as the binding in the presence of the compound divided by the binding in the absence of a ligand, multiplied by 100. Dose response curves are plotted using a non-linear regression curve fitting program, and the EC50 is defined as the concentration of the compound required to give 50% of its maximum stimulation. Preferably, the EC50 value of an agent of the invention in this test is 10′000 nM or less. The selectivity of the compound towards the S1P receptor subtypes is determined by measuring for each of the different S1P receptor subtypes the level of ^35S-GTPγS binding in the presence of the compound using each of the different membrane proteins.

human S1P1 receptor = target: T2, human S1P1 receptor (Homo sapiens, UniProt P21453); experiment: 35S-GTPγS binding assay (Test 1), S1P1; details: membrane protein of transfected CHO cells, SPA; for EC50: read-out: EC50, receptor subtype S1P1
T2 construct: expressed in transfected cells; host or cells: CHO-K1 (ATCC CCL 61); RH7777 may also be used
T2 sequence (P21453 whole entry): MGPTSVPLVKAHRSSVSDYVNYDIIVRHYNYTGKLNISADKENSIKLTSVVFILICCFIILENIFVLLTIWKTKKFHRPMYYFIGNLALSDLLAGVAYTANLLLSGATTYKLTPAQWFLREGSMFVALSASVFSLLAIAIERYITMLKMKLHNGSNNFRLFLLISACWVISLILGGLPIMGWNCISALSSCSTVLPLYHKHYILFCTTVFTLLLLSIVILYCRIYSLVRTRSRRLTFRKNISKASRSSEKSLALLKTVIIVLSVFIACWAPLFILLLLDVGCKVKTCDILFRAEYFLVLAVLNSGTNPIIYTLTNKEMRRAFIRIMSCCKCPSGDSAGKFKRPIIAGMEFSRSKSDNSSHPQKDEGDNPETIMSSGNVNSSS
Method: as §1, §2

human S1P4 receptor = target: T3, human S1P4 receptor (Homo sapiens, UniProt O95977); experiment: 35S-GTPγS binding assay (Test 1), S1P4; details: membrane protein of transfected CHO cells, SPA; for EC50: read-out: EC50, receptor subtype S1P4
T3 construct: expressed in transfected cells; host or cells: CHO-K1 (ATCC CCL 61); RH7777 may also be used
T3 sequence (O95977 1-384): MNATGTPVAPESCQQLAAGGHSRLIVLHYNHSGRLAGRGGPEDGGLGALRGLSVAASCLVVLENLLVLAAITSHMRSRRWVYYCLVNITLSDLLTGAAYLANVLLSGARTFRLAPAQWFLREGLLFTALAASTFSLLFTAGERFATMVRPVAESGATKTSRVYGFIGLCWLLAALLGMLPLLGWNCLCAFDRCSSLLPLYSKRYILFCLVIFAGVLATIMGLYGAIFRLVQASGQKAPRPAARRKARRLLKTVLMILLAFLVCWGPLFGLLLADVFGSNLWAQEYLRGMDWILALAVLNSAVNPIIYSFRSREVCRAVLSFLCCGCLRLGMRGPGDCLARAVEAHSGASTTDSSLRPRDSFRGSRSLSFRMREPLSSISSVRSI
Method: as §1, §2

CCCn1nccc1-c1ccc(Nc2c(C)cc(C)cc2C)c(C(N)=O)c1 [Example 27, 5-(2-Propyl-2H-pyrazol-3-yl)-2-(2,4,6-trimethyl-phenylamino)-benzamide]
efficacy, receptor subtype S1P5 (human S1P5 receptor): 93% | EC50 (human S1P5 receptor): 25 nM | efficacy, receptor subtype S1P1 (human S1P1 receptor): 85% | EC50 (human S1P1 receptor): 495 nM | efficacy, receptor subtype S1P4 (human S1P4 receptor): 130% | EC50 (human S1P4 receptor): 106 nM

COc1ccc(Nc2c(C)cc(C)cc2C)c(C(N)=O)c1 [Example 36, 5-Methoxy-2-(2,4,6-trimethyl-phenylamino)-benzamide]
efficacy, receptor subtype S1P5 (human S1P5 receptor): 64% | EC50 (human S1P5 receptor): 80 nM | efficacy, receptor subtype S1P1 (human S1P1 receptor): 87% | EC50 (human S1P1 receptor): 305 nM | efficacy, receptor subtype S1P4 (human S1P4 receptor): 126% | EC50 (human S1P4 receptor): 210 nM

Cc1cc(C)c(Nc2ccc(Cl)cc2C(N)=O)c(C)c1 [Example 37, 5-Chloro-2-(2,4,6-trimethyl-phenylamino)-benzamide]
efficacy, receptor subtype S1P5 (human S1P5 receptor): 66% | EC50 (human S1P5 receptor): 90 nM | efficacy, receptor subtype S1P1 (human S1P1 receptor): 93% | EC50 (human S1P1 receptor): 150 nM | efficacy, receptor subtype S1P4 (human S1P4 receptor): 109% | EC50 (human S1P4 receptor): 160 nM
